According to patent US8425925B2, “Pesticidal tag” (priority 2007, dated 2013):
Like-named read-outs stand apart in the source and are kept apart here.

Columns and labels:
[1] = system: pyrethroid-susceptible (PY-Susceptible) horn fly (Haematobia irritans irritans) strain; type: in vivo
Method: (§1) A comparison of ivermectin formulations is made to determine their toxicity to horn fly (Haematobia irritans irritans) strains. Three formulations are tested: ivermectin alone, ivermectin formulated with epoxidized soybean oil (ESO), and ivermectin formulated with piperonyl butoxide (PBO). Both pyrethroid-resistant (PY-Resistant) and pyrethroid-susceptible (PY-Susceptible) horn fly strains are tested. […] See D C Sheppard & N C Hinkle, “A field procedure using disposable materials to evaluate horn fly insecticide resistance,” J. Agric. Entomol. 4:87-89 (1987).
(§2) Table 1 presents the contact toxicity results in units of μg/cm^2, computed using Log-Probit Analysis. See, e.g., V. K. Borooah, Logit and Probit (2002) (Sage Publications, Thousand Oaks, Calif., USA).
(§3) Further tests, similar to those of the Ivermectin tests described above, were performed using Abamectin compositions.

[2] = system: pyrethroid-resistant (PY-Resistant) horn fly (Haematobia irritans irritans) strain; type: in vivo
Method: as §1, §2, §3

[3] = PY-Susceptible, 4-hour exposure, Log-Probit Analysis
[4] = 4-hour exposure, Log-Probit Analysis

Substance: Abamectin
- PY-Susceptible versus PY-Resitant RR50 (resistance ratio) ([1]; 8 hour contact, LC50 of PY-susceptible divided by LC50 of PY-resistant horn flies): 31.64
- PY-Susceptible versus PY-Resitant RR90 (resistance ratio) ([1]; 8 hour contact, LC90 of PY-susceptible divided by LC90 of PY-resistant horn flies): 23.05
- Lethal Concentrations (cell spanning LC50 and LC90) ([1]; PY-Susceptible, 2 hour contact): no mortality
- Lethal Concentrations (cell spanning LC50 and LC90) ([1]; PY-Susceptible, 4 hour contact): no mortality
- Lethal Concentrations LC50 ([1]; PY-Susceptible, 8 hour contact): 37.65 microgram/sq. cm
- Lethal Concentrations LC90 ([1]; PY-Susceptible, 8 hour contact): 175.16 microgram/sq. cm
- Lethal Concentrations (cell spanning LC50 and LC90) ([2]; 2 hour contact): no mortality
- Lethal Concentrations LC50 ([2]; 4 hour contact): 138.5 microgram/sq. cm
- Lethal Concentrations LC90 ([2]; 4 hour contact): 1,089 microgram/sq. cm
- Lethal Concentrations LC50 ([2]; 8 hour contact): 1.19 microgram/sq. cm
- Lethal Concentrations LC90 ([2]; 8 hour contact): 7.60 microgram/sq. cm

Substance: Ivermectin
- Lethal Concentration LC50 [1, 3]: 165.6 μg/cm^2
- Lethal Concentration LC90 [1, 3]: 418.3 μg/cm^2
- Lethal Concentration LC50 [2, 4]: 93.8 μg/cm^2
- Lethal Concentration LC90 [2, 4]: 478.0 μg/cm^2
